The melting point is the temperature, or range, at which the solid turns liquid. What is called inhibition is the drop in the measured response relative to a control, in per cent. A lower inhibition goes with a weak effect.

The subject of one series is Botrytis cinerea. In words: Action against Botrytis cinerea - fungal growth assay. It counts as cell-based. The note with it: 0.002% active ingredient, PDB broth, 24° C., photometric after 3-4 days. The procedure:
Conidia of the fungus from cryogenic storage are directly mixed into nutrient broth (PDB potato dextrose broth). After placing a (DMSO) solution of the test compounds (0.002% active ingredient) into a microtiter plate (96-well format) the nutrient broth containing the fungal spores is added.

The structures appear in SMILES notation.

Molecule `Cc1cc(Br)cc(C)c1OCC(C)NC(=O)c1cn(C)nc1C(F)F` (centres unmarked) [Compound 1.168, 3-difluoromethyl-1-methyl-1H-pyrazole-4-carboxylic acid [2-(4-bromo-2,6-dimethyl-phenoxy)-1-methyl-ethyl]-amide] displayed a melting point of 119 to 121 °C.

On to `CC(COc1c(Br)cc(Br)cc1Br)NC(=O)c1cn(C)nc1C(F)F` (centres unmarked) [Compound 1.193, 3-difluoromethyl-1-methyl-1H-pyrazole-4-carboxylic acid [1-methyl-2-(2,4,6-tribromo-phenoxy)-ethyl]-amide], for which the melting point lay within 122 to 124 °C.

In the case of `Cn1cc(C(=O)NC2(COc3ccc(Cl)cc3)CC2)c(C(F)F)n1` [Compound 1.221], the fungal growth inhibition in the series on Botrytis cinerea is 50%.

With `CC(COc1ncc(C(F)(F)F)cc1Cl)NC(=O)c1cn(C)nc1C(F)F` (centres unmarked) [Compound 1.239, 3-difluoromethyl-1-methyl-1H-pyrazole-4-carboxylic acid [2-(3-chloro-5-trifluoromethyl-pyridin-2-yloxy)-1-methyl-ethyl]-amide], the melting point lay within 115 to 118 °C. Also, in the series with Botrytis cinerea (Botrytis cinerea), the inhibition at 0.002 % strength is 50%.

These data come from patent US8324263B2, “Microbiocidally active carboxamides” (Syngenta Crop Protection, LLC, priority 2007, dated 2012).
